Experimental data: paper PMC9884426, “A phase 1 clinical trial of the repurposable acetyllysine mimetic, n-methyl-2-pyrrolidone (NMP), in relapsed or refractory multiple myeloma” (Clinical Epigenetics, 2023)
Read-outs that look alike come from different tables or passages of the source.

Assay: Plasma pharmacokinetics of oral NMP by LCMSMS
Assay type: in vivo, human
Details: for AUC / Cmax / half-life / Tmax: human, po
Description: Blood samples were taken from patients before NMP and at one, two, four, eight and 24 h post dose. Plasma samples (20 μl) were prepared by adding five volumes of methanol containing deuterated internal standard. The samples were vortexed then centrifuged, and the supernatant was transferred to a vial and injected onto the LCMSMS. The LCMSMS system consisted of a Shimadzu UHPLC with a SCIEX 6500QTrap, a KinetexC18 (3 × 50 mm, 2.6 μm) column and using a gradient of 0.1% formic acid and acetonitrile. The initial conditions were 0.5 ml/min and 2% acetonitrile; this was held for 1 min then increased to 20% acetonitrile at 2 min then increased to 70% acetonitrile and held for 0.5 min. Equilibration time was 0.5 min. MRMs for NMP were 100 → 58, 100 → 69, 100 → 41 and for the internal standard d9NMP 109 → 62, […]. PK analysis was performed using Pkanalix (version 2021R1. Antony, France: Lixoft SAS, 2021).

[1] = all dose levels 25-800 mg oral, N = 28 profiles, plasma

With `CN1CCCC1=O` [NMP, N-methyl-2-pyrrolidone] the “Maximum plasma concentration (Cmax), highest achieved” value (800 mg dose, oral, one patient) was 16700 ng/mL, the “CL/F, Overall Average” value [1] was 19.25 L⋅h⁻¹ and the “Half-life, Overall Average” value [1] was ~ 1.5 h. The “V/F, Overall Average” value [1] was 39.49 L, the “Tmax, Overall Average” value (all dose levels 25-800 mg oral, N = 29 profiles, plasma) was 33 min and the “single NMP dose predicted to be required to attain BET-inhibitory peak plasma concentrations” value (e.g. > 1 mM peak plasma, based on NMP's PK) was “more than 4.5 g”. The AUC (plasma, 25 mg, oral 25 mg, patient RMH-01 occasion 6, plasma, read-out: AUC) was 1500 ng·h/mL, the Cmax (plasma, 25 mg, oral 25 mg, patient RMH-01 occasion 6, plasma, read-out: Cmax) was 930 ng/mL and the half-life (plasma, 25 mg, oral 25 mg, patient RMH-01 occasion 6, plasma, read-out: Half-life (converted)) was 52.2 min. The Tmax (plasma, 25 mg, oral 25 mg, patient RMH-01 occasion 6, plasma, read-out: Tmax) was 30 min, the AUC (plasma, 50 mg, oral 50 mg, average of N = 5 profiles, plasma, read-out: AUC, Average) was 2170 ng·h/mL and the Cmax (plasma, 50 mg, oral 50 mg, average of N = 5 profiles, plasma, read-out: Cmax, Average) was 1260 ng/mL. For the same molecule, the half-life (plasma, 50 mg, oral 50 mg, average of N = 5 profiles, plasma, read-out: Half-life, Average (converted)) was 64.8 min, the Tmax (plasma, 50 mg, oral 50 mg, average of N = 5 profiles, plasma, read-out: Tmax, Average) was 30 min and the AUC (plasma, 50 mg, oral 50 mg, individual profiles, patient RMH-01 occasions 1-5, plasma, read-out: AUC) was 2830 ng·h/mL. For the same molecule, the Cmax (plasma, 50 mg, oral 50 mg, individual profiles, patient RMH-01 occasions 1-5, plasma, read-out: Cmax) was 1720 ng/mL, the half-life (plasma, 50 mg, oral 50 mg, individual profiles, patient RMH-01 occasions 1-5, plasma, read-out: Half-life (converted)) was 72.6 min and the Tmax (plasma, 50 mg, oral 50 mg, individual profiles, patient RMH-01 occasions 1-5, plasma, read-out: Tmax) was 30 min. For the same molecule, the AUC (plasma, 100 mg, oral 100 mg, average of N = 5 profiles, plasma, read-out: AUC, Average) was 7130 ng·h/mL, the Cmax (plasma, 100 mg, oral 100 mg, average of N = 5 profiles, plasma, read-out: Cmax, Average) was 2570 ng/mL and the half-life (plasma, 100 mg, oral 100 mg, average of N = 5 profiles, plasma, read-out: Half-life, Average (converted)) was 110 min. For the same molecule, the Tmax (plasma, 100 mg, oral 100 mg, average of N = 5 profiles, plasma, read-out: Tmax, Average) was 30 min, the AUC (plasma, 100 mg, oral 100 mg, individual profiles, patient RMH-02 occasions 1-5, plasma, read-out: AUC) was 6970 ng·h/mL and the Cmax (plasma, 100 mg, oral 100 mg, individual profiles, patient RMH-02 occasions 1-5, plasma, read-out: Cmax) was 2730 ng/mL. For the same molecule, the half-life (plasma, 100 mg, oral 100 mg, individual profiles, patient RMH-02 occasions 1-5, plasma, read-out: Half-life (converted)) was 101 min, the Tmax (plasma, 100 mg, oral 100 mg, individual profiles, patient RMH-02 occasions 1-5, plasma, read-out: Tmax) was 30 min and the half-life (plasma, 200 mg, oral 200 mg, average of N = 8 profiles, plasma, read-out: Half-life, Average (converted)) was 88.2 min. It also gave an AUC (plasma, 200 mg, oral 200 mg, average of N = 9 profiles, plasma, read-out: AUC, Average) of 9510 ng·h/mL, a Cmax (plasma, 200 mg, oral 200 mg, average of N = 9 profiles, plasma, read-out: Cmax, Average) of 4050 ng/mL and a Tmax (plasma, 200 mg, oral 200 mg, average of N = 9 profiles, plasma, read-out: Tmax, Average) of 33.6 min. It also gave a half-life (plasma, 200 mg, oral 200 mg, individual profiles (PMC-03, MON-04, MON-06, MON-07, PMC-08), plasma, read-out: Half-life (converted)) of 84 min, a Tmax (plasma, 200 mg, oral 200 mg, individual profiles (PMC-03, MON-04, PMC-05, MON-06, MON-07, PMC-08), plasma, read-out: Tmax) of 30 min and an AUC (plasma, 300 mg, oral 300 mg, average of N = 3 profiles, plasma, read-out: AUC, Average) of 22200 ng·h/mL. The Cmax (plasma, 300 mg, oral 300 mg, average of N = 3 profiles, plasma, read-out: Cmax, Average) was 8060 ng/mL, the half-life (plasma, 300 mg, oral 300 mg, average of N = 3 profiles, plasma, read-out: Half-life, Average (converted)) was 96 min and the Tmax (plasma, 300 mg, oral 300 mg, average of N = 3 profiles, plasma, read-out: Tmax, Average) was 40.2 min. It also gave a Cmax (plasma, 300 mg, oral 300 mg, individual profiles (PMC-09, MON-10, MON-11), plasma, read-out: Cmax) of 10500 ng/mL, a half-life (plasma, 300 mg, oral 300 mg, individual profiles (PMC-09, MON-10, MON-11), plasma, read-out: Half-life (converted)) of 99.6 min and a Tmax (plasma, 300 mg, oral 300 mg, individual profiles (PMC-09, MON-10, MON-11), plasma, read-out: Tmax) of 30 min. For the same molecule, the AUC (plasma, 400 mg, oral 400 mg, average of N = 2 profiles, plasma, read-out: AUC, Average) was 22200 ng·h/mL, the Cmax (plasma, 400 mg, oral 400 mg, average of N = 2 profiles, plasma, read-out: Cmax, Average) was 8310 ng/mL and the half-life (plasma, 400 mg, oral 400 mg, average of N = 2 profiles, plasma, read-out: Half-life, Average (converted)) was 94.2 min. The Tmax (plasma, 400 mg, oral 400 mg, average of N = 2 profiles, plasma, read-out: Tmax, Average) was 30 min, the AUC (plasma, 400 mg, oral 400 mg, individual profiles (MON-11 occasion 2, MON-12), plasma, read-out: AUC) was 28500 ng·h/mL and the Cmax (plasma, 400 mg, oral 400 mg, individual profiles (MON-11 occasion 2, MON-12), plasma, read-out: Cmax) was 8990 ng/mL. The half-life (plasma, 400 mg, oral 400 mg, individual profiles (MON-11 occasion 2, MON-12), plasma, read-out: Half-life (converted)) was 107 min, the Tmax (plasma, 400 mg, oral 400 mg, individual profiles (MON-11 occasion 2, MON-12), plasma, read-out: Tmax) was 30 min and the AUC (plasma, 500 mg, oral 500 mg, patient MON-11 occasion 3, plasma, read-out: AUC) was 40600 ng·h/mL. For the same molecule, the Cmax (plasma, 500 mg, oral 500 mg, patient MON-11 occasion 3, plasma, read-out: Cmax) was 12700 ng/mL, the half-life (plasma, 500 mg, oral 500 mg, patient MON-11 occasion 3, plasma, read-out: Half-life (converted)) was 119 min and the Tmax (plasma, 500 mg, oral 500 mg, patient MON-11 occasion 3, plasma, read-out: Tmax) was 30 min. The AUC (plasma, 600 mg, oral 600 mg, patient MON-11 occasion 4, plasma, read-out: AUC) was 56700 ng·h/mL, the Cmax (plasma, 600 mg, oral 600 mg, patient MON-11 occasion 4, plasma, read-out: Cmax) was 14400 ng/mL and the half-life (plasma, 600 mg, oral 600 mg, patient MON-11 occasion 4, plasma, read-out: Half-life (converted)) was 130 min. The Tmax (plasma, 600 mg, oral 600 mg, patient MON-11 occasion 4, plasma, read-out: Tmax) was 30 min and the AUC (plasma, 700 mg, oral 700 mg, patient MON-11 occasion 5, plasma, read-out: AUC) was 57600 ng·h/mL.
